The nature of data set [1]: Stability in Simulated Gastric Fluid (SGF). It counts as in vitro ADME. More on the design: key: % parent compound remaining relative to 0-minute sample. The method, boiled down:
(§1)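 Each compound is spiked to a final 2 μg/mL into SGF with pepsin (pH 1.2) and into SIF with pancreatin (pH 6.8). Samples shake at 37° C, aliquots are taken between 0 and 60 minutes, precipitated with acetonitrile and analysed by LC-MS/MS. Degradation half-life is derived from the natural-log plot where time points allow.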

Data set [2] is described as follows: Stability in Simulated Intestinal Fluid (SIF). The class given is in vitro ADME. More on the design: key: % parent compound remaining relative to 0-minute sample. A digest of the protocol: as §1
Data set [3] can be described thus: Plasma Stability. The class given is in vitro ADME, human. The method, boiled down:
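Parent compound quantified by LC-MS/MS after acetonitrile precipitation, reported as percent of control remaining (triplicate). Incubation: 1 hour, 37° C, fresh human plasma, compound at 1 μM.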

The nature of data set [4]: Caco-2 Permeability Assay. It counts as in vitro ADME, human. The settings on record: human. The source says: The compounds of the invention may be tested for biological activity as MPO inhibitors by methods known to those skilled in the art. In addition, methods such as, for example, a Caco-2 assay, may be used to test the bioavailability of the compounds of the invention. A description of a Caco-2 permeability assay is as follows:
• The Caco-2 monolayer is widely used across the pharmaceutical industry as an in vitro model of the human small intestinal mucosa to predict the absorption of orally administered drugs.^1-4 • The Caco-2 cell model mimics processes such as transcellular transport, paracellular transport, and some aspects of efflux and active transport. • Readout: Papp (A→B), Papp (B→A), Efflux ratio, % Recovery • Controls: with and without Pgp inhibitor; Atenolol, Propanolol, Taxel-1
The Caco-2 cells are cultured to confluency, trypsinized and seeded onto a filter transwell insert at a density of ^˜32,000 cells/well in DMEM cell culture medium. Cells are grown in a humidified atmosphere of 5% CO2 at 37° C. Following an overnight attachment period (24 h after seeding), the cell medium is replaced with fresh medium in both the apical and basolateral compartments every other day. The cell monolayers are used for transport studies 21 days post seeding after measuring the TEER values ([…]). The apical sides and basolateral sides are washed consecutively with HBSS 2.5% (v/v), HEPES (pH 7.4) or HBSS 2.5% (v/v), HEPES 10% (v/v), and Fetal Bovine Serum (pH 7.4) at 37° C. in an incubator under an atmosphere of 5% CO2.
Donor working solution is prepared by dilution of DMSO stock of test article or positive control with transport media to 10 μM.
For A→B directional transport, the donor working solution (with test article or positive control, with or without Pgp inhibitor) is added to the apical (A) compartment and the transport media as receiver working solution is added to the basolateral (B) compartment. For B→A directional transport, the donor working solution (with positive control or test article, with or without Pgp inhibitor) is added to the basolateral (B) compartment and transport media as receiver working solution is added to the apical (A) compartment.
The cells are incubated in a humidified atmosphere of 5% CO2 at 37° C. for 90 minutes.
At the end of the incubation, samples are taken from both donor and receiver compartments and transferred into 96-well assay plates containing internal standard solution (IS) in each well. After centrifugation, the supernatant solutions are transferred to clean 96 well plates and analyzed by LC-MS/MS. The MS detection is performed using a Sciex API 4000 instrument. Each compound is analyzed by reversed phase HPLC.
The parameters Papp (apparent permeability) and efflux ratio are calculated as follows:
Papp=(dQ/dt)×(1/C0)×(1/A)
Efflux ratio=Papp[B→A]/Papp[A→B]
where dQ/dt is the permeability rate, C0 is the initial concentration in the donor compartment, and A is the surface area of the cell monolayer (0.33 cm^2). The Papp value is a rate measured in cm/s. Calculated Papp is ranked as low (<[…]), moderate (1-10×10^−6 cm/s), and high (>[…]).
Comparing the efflux ratios generated in the presence and absence of a Pgp inhibitor identifies whether the test article is a Pgp substrate.
Recovery is calculated as follows:
% Recovery=(Total compound mass in donor and receiver compartments at the end of the incubation/Initial compound mass in the donor compartment)×100.
(In general: Passage across Caco-2 layers is used to estimate intestinal permeability.)

Setting [5] is: bare number, unit or time not given.
The mark [6] stands for this setting: % remaining at 1 h in simulated gastric fluid.
The mark [7] stands for this setting: % remaining at 1 h in simulated intestinal fluid.
Where [8] appears, read: % remaining at 1 h in human plasma.
Setting [9] is: Caco-2, pH 7.4, Caco-2 monolayer.
Where [10] appears, read: simulated gastric fluid, remaining at 1 h.
[11] abbreviates: simulated intestinal fluid, remaining at 1 h.
The mark [12] stands for this setting: % remaining at 1 h in simulated gastric fluid, the 15th table.
The mark [13] stands for this setting: % remaining at 1 h in simulated intestinal fluid, the 15th table.
Setting [14] is: % remaining at 1 h in human plasma, the 15th table.
The mark [15] stands for this setting: Caco-2, pH 7.4, Caco-2 monolayer, the 15th table.
Setting [16] is: % remaining at 1 h, SGF with pepsin pH 1.2, 2 μg/mL, 37° C.
[17] abbreviates: % remaining at 1 h, SIF with pancreatin pH 6.8, 2 μg/mL, 37° C.
Setting [18] is: % remaining at 1 h, human plasma, 1 μM, 37° C.
Where [19] appears, read: Caco-2, pH 7.4, donor 10 μM, 90 minutes, 37° C., direction not given.

One may read the Papp as the rate of passage across a membrane or cell layer, normalised by area and donor concentration. `CC(C)OCCn1c(SCO)nc(=O)c2[nH]ccc21` [Example 336, 2-[(hydroxymethyl)sulfanyl]-1-[2-(propan-2-yloxy)ethyl]-1H,4H,5H-pyrrolo[3,2-d]pyrimidin-4-one]: the SGF in data set [1] (setting [5]) is on record as 93. In data set [2] (setting [5]), the SIF is listed as 6. Moreover, in data set [3] (% remaining @ 1 h), the “human Plasma stability” value was 73% remaining. In addition, the Papp at 90 min, 10 µM in data set [4] (Caco-2, pH 7.4) amounted to 18.2 nm/s.

Regarding `CC(C)OCCn1c(=S)[nH]c(=O)c2c1ccn2COC(=O)CCCCNC(=O)[C@H](Cc1c[nH]c2ccccc12)NC(=O)OC(C)(C)C.O=C(O)C(F)(F)F` [Example 47], the SGF in data set [1] (setting [6]) was 99% remaining. The SIF in data set [2] (setting [7]) is 46% remaining. The “human Plasma stability” value in data set [3] (setting [8]) was found to be 78% remaining. The compound also displayed an apparent permeability (Papp) at 90 min, 10 µM in data set [4] (setting [9]) of 91.5 nm/s.

`CSCC[C@@H](NC(=O)OC(C)(C)C)C(=O)NCCOCCOC(=O)OCn1ccc2c1c(=O)[nH]c(=S)n2CCOC(C)C` [Example 389, (2R)-2-{[(tert-butoxy)carbonyl]amino}-4-(methylsulfanyl)-N-[2-(2-{[{{4-oxo-1-[2-(propan-2-yloxy)ethyl]-2-sulfanylidene-1H,2H,3H,4H,5H-pyrrolo[3,2-d]pyrimidin-5-yl}methoxy)carbonyl]oxy}ethoxy)eth-yl]butanamide]: the SGF in data set [1] (setting [10]) was 98% remaining. In data set [2] (setting [11]), the SIF was 60% remaining. In addition, the “human Plasma stability” value in data set [3] (human plasma, remaining at 1 h) came to 1% remaining. Besides, the Papp at 90 min, 10 µM in data set [4] (setting [9]) is 59.4 nm/s.

Regarding `CC(C)OCCn1c(SCOC(=O)OCCOCCNC(=O)OC(C)(C)C)nc(=O)c2c1ccn2COC(=O)OCCOCCNC(=O)OC(C)(C)C` [Example 121], the SGF in data set [1] (setting [6]) is on record as 69% remaining. Also, the SIF in data set [2] (setting [7]) is 56% remaining. For the same compound, in data set [3] (setting [8]), the “human Plasma stability” value is listed as 34% remaining. The compound also registered an apparent permeability coefficient (Papp) at 90 min, 10 µM in data set [4] (setting [9]) of 11.9 nm/s.

As for `CC(C)OCCn1c(=S)[nH]c(=O)c2c1ccn2COC(=O)CCCCNC(=O)CN(C)C(=O)CNC(=O)OC(C)(C)C.O=C(O)C(F)(F)F` [Example 57], the SGF in data set [1] (setting [6]) is recorded as 81% remaining. Also, the SIF in data set [2] (setting [7]) was 96% remaining. Moreover, in data set [3] (setting [8]), the “human Plasma stability” value is recorded as 0% remaining. In addition, in data set [4] (setting [9]), the Papp at 90 min, 10 µM was determined as 2.8 nm/s.

Consider `CC(C)OCCn1c(=S)[nH]c(=O)c2c1ccn2COC(=O)CCCCCCCCCCC(=O)OC(C)C` [Example 262], for which the SGF in data set [1] (simulated gastric fluid, after 1 h) was 92% remaining. Moreover, in data set [2] (simulated intestinal fluid, after 1 h), the SIF is given as 2% remaining. The “human Plasma stability” value in data set [3] (human plasma, after 1 h) worked out at 41% remaining. Also, the Papp at 90 min, 10 µM in data set [4] (setting [9]) was less than 2.14 nm/s.

On to `COC(=O)OCSc1nc(=O)c2c(ccn2CSc2nc(=O)c3[nH]ccc3n2CCOC(C)C)n1CCOC(C)C` [Example 199], for which, in data set [1] (setting [12]), the SGF is 47% remaining. Also, in data set [2] (setting [13]), the SIF is given as 79% remaining. The “human Plasma stability” value in data set [3] (setting [14]) stood at 46% remaining. The same compound gave a Papp at 90 min, 10 µM in data set [4] (setting [15]) of 55.4 nm/s.

As to `COC(=O)[C@H](CCCCNC(=O)[C@@H](NC(=O)OC(C)(C)C)C(C)C)NC(=O)OCn1ccc2c1c(=O)[nH]c(=S)n2CCOC(C)C` [Example 111, methyl (2S)-6-[(2S)-2-{[(tert-butoxy)carbonyl]amino}-3-methylbutanamido]-2-{[{{4-oxo-1-[2-(propan-2-yloxy)ethyl]-2-sulfanylidene-1H,2H,3H,4H,5H-pyrrolo[3,2-d]pyrimidin-5-yl}methoxy)carbonyl]amino}hexanoate], the SGF in data set [1] (setting [16]) is recorded as 87%. The SIF in data set [2] (setting [17]) was 74%. Further, the “human Plasma stability” value in data set [3] (setting [18]) is reported as 85%. In data set [4] (setting [19]), this compound yielded a Papp at 90 min, 10 µM of 5.75 nm/s.

Turning to `CC(C)OCCn1c(SCOC(=O)N(C)CCc2ccccc2)nc(=O)c2c1ccn2COC(=O)N(C)CCc1ccccc1.O=C(O)C(F)(F)F` [Example 176], the SGF in data set [1] (% @ 1 h (remaining) in simulated gastric fluid) is reported as 86% @ 1 h. In data set [2] (% @ 1 h (remaining) in simulated intestinal fluid), the SIF is reported as 100% @ 1 h. In data set [3] (% @ 1 h (remaining) in human plasma), the “human Plasma stability” value stood at 99% @ 1 h. This compound displayed a Papp at 90 min, 10 µM in data set [4] (setting [9]) of 404 nm/s.

`CC(C)OCCn1c(=S)[nH]c(=O)c2c1ccn2COC(=O)CCCOC(=O)[C@H](N)C(C)C` [Example 356, trifluoroacetic acid 4-oxo-4-({4-oxo-1-[2-(propan-2-yloxy)ethyl]-2-sulfanylidene-1H,2H,3H,4H,5H-pyrrolo[3,2-d]pyrimidin-5-yl}methoxy)butyl (2R)-2-amino-3-methylbutanoate]: the SGF in data set [1] (setting [10]) was 99% remaining. In addition, the SIF in data set [2] (setting [11]) is given as 25% remaining. Further, in data set [3] (human plasma, remaining at 1 h), the “human Plasma stability” value worked out at 5% remaining. The compound further gave a Papp at 90 min, 10 µM in data set [4] (setting [9]) of 113 nm/s.

As for `CC(C)NC(=O)OCSc1nc(=O)c2[nH]ccc2n1CCOC(C)C` [Example 196], the SGF in data set [1] (setting [12]) was 99% remaining. In addition, in data set [2] (setting [13]), the SIF was 98% remaining. The “human Plasma stability” value in data set [3] (setting [14]) was 99% remaining. The same compound showed a Papp at 90 min, 10 µM in data set [4] (setting [15]) of 195 nm/s.

For the compound `COC(=O)[C@H](CCCCN)NC(=O)OCn1ccc2c1c(=O)[nH]c(=S)n2CCOC(C)C.O=C(O)C(F)(F)F` [Example 110, trifluoroacetic acid methyl (2S)-6-amino-2-{[{{4-oxo-1-[2-(propan-2-yloxy)ethyl]-2-sulfanylidene-1H,2H,3H,4H,5H-pyrrolo[3,2-d]pyrimidin-5-yl}methoxy)carbonyl]amino}hexanoate], the SGF in data set [1] (setting [16]) was 81%. Also, the SIF in data set [2] (setting [17]) is reported as 45%. Also, the “human Plasma stability” value in data set [3] (setting [18]) worked out at 62%. The compound further gave an apparent permeability coefficient (Papp) at 90 min, 10 µM in data set [4] (setting [19]) of 1.42 nm/s.

Take `CC(C)OCCn1c(=S)[nH]c(=O)c2c1ccn2COC(=O)NCC(F)(F)F` [Example 100, {4-oxo-1-[2-(propan-2-yloxy)ethyl]-2-sulfanylidene-1H,2H,3H,4H,5H-pyrrolo[3,2-d]pyrimidin-5-yl}methyl N-(2,2,2-trifluoroethyl)carbamate]: the SGF in data set [1] (setting [16]) is 99%. Also, the SIF in data set [2] (setting [17]) is 97%. Moreover, the “human Plasma stability” value in data set [3] (setting [18]) is on record as 97%. For the same compound, the apparent permeability (Papp) at 90 min, 10 µM in data set [4] (Caco-2, pH 7.4, no unit printed at the place (tables the 9th table and the 10th table have no head)) amounted to 277 nm/s.

As to `CC(C)C[C@H](NC(=O)OC(C)(C)C)C(=O)NCCC(=O)OCn1ccc2c1c(=O)[nH]c(=S)n2CCOC(C)C` [Example 27], the SGF in data set [1] (setting [6]) is on record as 92% remaining. Further, in data set [2] (setting [7]), the SIF is 61% remaining. Moreover, in data set [3] (setting [8]), the “human Plasma stability” value came to 91% remaining. Further, the apparent permeability coefficient (Papp) at 90 min, 10 µM in data set [4] (setting [9]) came to 86.1 nm/s.

Values taken from patent US20240067651A1 (Biohaven Therapeutics Ltd., priority 2019, published 2024).
